Source: PMC8795738, “The Tarantula Venom Peptide Eo1a Binds to the Domain II S3-S4 Extracellular Loop of Voltage-Gated Sodium Channel NaV1.8 to Enhance Activation” (Frontiers in Pharmacology, 2022)
Where a SMILES comes first, the peptide text is derived from it. Bridges are numbered along the chain shown (N, C = ends).

Assays:
NaV1.1 = test: I-V protocol, whole-cell patch-clamp, NaV1.1; type: cell-based, human; settings: Eo1a 10 μM
Method: (§1) Human Embryonic Kidney (HEK) 293 cells stably expressing human NaV1.1 to NaV1.7/β1 (SB Drug Discovery, Glasgow, United Kingdom), Chinese Hamster Ovary (CHO) cells stably expressing human NaV1.8/β3 in a tetracycline-inducible system (ChanTest, Cleveland, OH, United States), and HEK293 cells stably expressing rat transient receptor potential vanilloid 1 (TRPV1) were cultured as previously described ([Yin et al., 2020]). Human KV2.1 and NaV1.7 mutants were transiently transfected into HEK293 cells stably expressing β1/β2 using Lipofectamine 2000 (Thermo Fisher Scientific, Scoresby, VIC, Australia) and used for patch-clamp experiments 48 h after transfection. Cells were grown in an incubator at 37°C with 5% CO2 and passaged every 3–4 d (at 70–80% confluency) using TrypLE Express (Thermo Fisher Scientific).
(§2) Automated whole-cell patch-clamp recordings were performed with a QPatch-16 automated electrophysiology platform (Sophion Bioscience, Ballerup, Denmark) using single-hole (QPlate 16 with a standard resistance of 2 ± 0.4 MΩ) or multi-hole (QPlate 16X with a standard resistance 0.2 ± 0.04 MΩ, NaV1.8 only) as previously described ([McMahon et al., 2020]).
(§3) The extracellular solution (ECS) consisted of (in mM) 145 NaCl (replaced with 70 choline chloride for NaV1.4, NaV1.5 and NaV1.7), 4 KCl, 2 CaCl2, 1 MgCl2, 10 HEPES, and 10 glucose, pH to 7.4 with NaOH (adjusted to 305 mOsm/L with sucrose). For NaV recordings the intracellular solution (ICS) consisted of (in mM) 140 CsF, 1 EGTA, 5 CsOH, 10 HEPES, and 10 NaCl, pH to 7.3 with CsOH (adjusted to 320 mOsm/L with sucrose). For KV2.1 recordings the ICS consisted of (in mM) 50 KCl, 60 KF, 10 EGTA, 10 HEPES, 10 NaCl pH to 7.3 with KOH (adjusted to 320 mOsm/L with sucrose). TTX (1 μM) was added to the ECS for NaV1.8 recordings to inhibit background endogenous TTX sensitive current in CHO cells.
(§4) I-V curves were obtained with a holding potential of −90 mV followed by a series of 500 ms step pulses that ranged from −110 to +80 mV in 5-mV increments (repetition interval 5 s) before and after 5 min incubation with Eo1a (10 μM). Conductance-voltage (G-V) curves were obtained by calculating the conductance (G) at each voltage (V) using equation G = I/(V − V rev ), where V rev is the reversal potential. G-V curves were fitted with a Boltzmann equation. […]
(§5) The time constant of fast inactivation (τ) was computed by fitting the current decay traces with a single exponential function using QPatch Assay Software 5.6 (Sophion). The time to peak was calculated from pulse onset to peak inward current using QPatch Assay Software 5.6 (Sophion).

NaV1.3 = test: I-V protocol, whole-cell patch-clamp, NaV1.3; type: cell-based, human; settings: Eo1a 10 μM
Method: as §1, §2
as §3, with “TTX (1 μM) was added to the ECS for NaV1.8 recordings to inhibit background endogenous TTX sensitive current in CHO cells.” left out
as §5

NaV1.5 = test: I-V protocol, whole-cell patch-clamp, NaV1.5; type: cell-based, human; settings: Eo1a 10 μM
Method: as §1, §2, §3, §4, §5

DRG neurons = test: Calcium imaging of dorsal root ganglion (DRG) neurons; type: cell-based, mouse
Excerpt: Adult male C57BL/6J mice aged 4–8 weeks were sourced from the Animal Resource Centre (Canning Vale, Western Australia). Adult male NaV1.8 knockouts ([Nassar et al., 2004]) (aged 8–11 weeks) and wild-type littermates were housed and tested at University College London. Animals were housed in groups of three or four per cage under 12-h light-dark cycles and were provided with standard rodent chow and water ad libitum. Ethical approval for experiments involving animals was obtained from The University of Queensland animal ethics committee (TRI/IMB/093/17, IMB/PACE/421/18) and the United Kingdom Home Office (project licence PPL 70/7382). All experiments were conducted in accordance with the International Association for the Study of Pain Guidelines for the Use of Animals in Research and the Australian Code of Practice for the Care and Use of Animals for Scientific Purposes, 8th edition (2013).
For Ca^2+ imaging experiments, DRG neurons were isolated from 4 week old male C57BL/6J mice as previously described ([Robinson et al., 2018]). DRG neurons were dissociated and plated in 96-well poly-D-lysine-coated culture plates grown in Dulbecco’s modified Eagle’s medium supplemented with 10% fetal bovine serum (FBS) and penicillin/streptomycin and cultured for 24 h at 37°C with 5% CO2. Dissociated DRG neurons were loaded with Fluo-4 AM calcium indicator (5 μM) for 1 h, then washed with Hanks’ balanced salt solution (HBSS) containing 20 mM HEPES. Fluorescence was measured using a Nikon Ti-E Deconvolution inverted microscope, in conjunction with a Lumencor Spectra LED light source (excitation, 485 nm; emission, 521 nm). Images were acquired at 1 frame per s using a 20× objective. […] Only excitable cells responding to KCl were included for analysis. Cells were classified as responders if they had at least a 1.5-fold increase in fluorescence over baseline.

CC[C@H](C)[C@@H]1NC(=O)[C@H](CCCNC(=N)N)NC(=O)[C@@H]2CSSC[C@@H]3NC(=O)CNC(=O)CNC(=O)[C@H](CC(C)C)NC(=O)[C@H](Cc4ccccc4)NC(=O)[C@H](Cc4c[nH]c5ccccc45)NC(=O)[C@H](CCCNC(=N)N)NC(=O)[C@@H](NC(=O)[C@@H](N)CC(=O)O)CSSC[C@H](NC(=O)[C@H](CSSC[C@@H](C(=O)N[C@@H](C)C(=O)N[C@@H](Cc4c[nH]c5ccccc45)C(=O)N[C@@H](CC(=O)O)C(=O)NCC(=O)N[C@H](C(=O)N[C@@H](Cc4ccccc4)C(N)=O)[C@@H](C)O)NC(=O)[C@H](Cc4ccc(O)cc4)NC(=O)[C@H](CCCCN)NC(=O)[C@H]([C@@H](C)CC)NC(=O)[C@H](Cc4ccc(O)cc4)NC(=O)CNC(=O)[C@H](CC(=O)O)NC1=O)NC(=O)[C@H](CC(=O)O)NC(=O)[C@H](CO)NC(=O)[C@H](CC(=O)O)NC(=O)[C@H](CCCCN)NC(=O)[C@H](CO)NC3=O)C(=O)N[C@@H](CCCCN)C(=O)N[C@@H](Cc1c[nH]cn1)C(=O)N[C@@H](CC(C)C)C(=O)N[C@@H](C)C(=O)N2 [Eo1a] (H-DCRWFLGGCSKDSDCCKHLACRIDGYIKYCAWDGTF-NH2; disulfide 2-16, 9-21, 15-30 (inferred); N-terminus assumed)
peak current I/I0 (NaV1.1; 5 min, peak from I-V protocol at any voltage, normalised to buffer control, HEK293 hNaV1.1/β1, mean ± SEM, n = 4–6 cells): 0.89 ± 0.03 | V1/2 activation (NaV1.1; NaV1.1, 5 min, control −21.5 ± 1.5 mV, mean ± SEM, n = 4–6): −24.4 ± 2.1 mV | V1/2 inactivation (steady-state fast inactivation) (NaV1.1; NaV1.1, 5 min, control −55.0 ± 1.1 mV, mean ± SEM, n = 4–6): −57.8 ± 2.0 | effect on inactivation kinetics (NaV1.1; NaV1.1, test pulse −20 mV): minimal effect | V1/2 activation (NaV1.3; 5 min, control −20.4 ± 2.2 mV, *p < 0.05, mean ± SEM, n = 4–6): −27.9 mV | V1/2 inactivation (steady-state fast inactivation) (NaV1.3; 5 min, control −63.2 ± 1.0 mV, mean ± SEM, n = 4–6): −63.0 ± 1.5 | effect on inactivation kinetics (NaV1.3; test pulse −20 mV): minimal effect | peak current I/I0 (NaV1.5; 5 min, peak from I-V protocol at any voltage, normalised to buffer control, HEK293 hNaV1.5/β1, mean ± SEM, n = 4–6 cells): 0.41 ± 0.05 | V1/2 activation (NaV1.5; NaV1.5, 5 min, control −30.3 ± 4.0 mV, mean ± SEM, n = 4–6): −27.1 ± 2.2 mV | V1/2 inactivation (steady-state fast inactivation) (NaV1.5; NaV1.5, 5 min, control −70.2 ± 0.9 mV, mean ± SEM, n = 4–6): −75.5 ± 1.0 | effect on inactivation kinetics (NaV1.5; NaV1.5, test pulse −20 mV): minimal effect | neurons activated in the presence of TTX (DRG neurons; Eo1a 10 μM + TTX 1 μM, dissociated DRG neurons of C57BL/6J mice, Fluo-4, mean ± SEM of 2–3 wells): 30 ± 2% | neurons with Ca2+ influx (activated) (DRG neurons; Eo1a 10 μM, dissociated DRG neurons of C57BL/6J mice, Fluo-4, responder = at least 1.5-fold fluorescence increase, without TTX, mean ± SEM of 2–3 wells): 44 ± 3% | size of activated neurons (DRG neurons; Eo1a 10 μM, n = 473 alone, n = 317 with TTX, distribution did not change with TTX): smaller size
